The text below walks through data of patent publication US20050244481A1, “Personal care products and methods for inhibiting the adherence of flora to skin” (Kimberly-Clark Worldwide, Inc., priority 2004, published 2005).

Common to all, as to assay type: cell-based
Test [1] concerns Pseudomonas aeruginosa (ATCC # 27853). In words: Inhibition of P. aeruginosa attachment to VITRO-SKIN synthetic skin substrate (Example 1, AlamarBlue). The settings on record: 3 h, RFU at 120 min, n = 5. The procedure:
Two days prior to the test a bacterial culture was started by inoculating 10 ml Luria-Bertani (LB) (Sigma-Aldrich, St. Louis, Mo.) with one frozen bead of Pseudomonas aeruginosa (ATCC # 27853), and incubating the culture overnight at 37° C. with agitation at 125 rpm.
One day prior to the test a 100 ml LB culture was inoculated with 100 μl of the overnight culture and grown overnight at 37° C. with agitation at 125 rpm. VITRO-SKIN® synthetic skin substrate (N19, IMS, Milford, Conn.) was cut with a #2 size boring tool and placed into the wells of a 96 well tissue culture plate (Costar #3596, Corning Inc., Corning, NY). The plates were kept in a humidity chamber overnight until use to prevent dehydration of the tissues.
The day of the test, the optical density at 650 nm (OD) of the overnight culture was measured using a Spectramax spectrophotometer (Molecular Devices, Sunnyvale, Calif.). The culture was centrifuged at 4,500×g for 10 minutes at 4° C. (J-251 centrifuge, Beckman, Fullerton, Calif.) to pellet the bacteria. The bacteria were resuspended in phosphate buffered saline (PBS) to give a concentration of 2×10^10 cells/ml (1 OD equals 1×10^9 cells/ml).
A 20% (w/v) solution of each inulin source (Chicory root, Dahlia tuber from Sigma-Aldrich, St. Louis, Mo.) was prepared by mixing 0.3 g inulin with PBS (Invitrogen, Carlsbad, Calif.) to a final volume of 1.5 ml. Tween 20 (Sigma-Aldrich, St. Louis, Mo.) was included as a positive control, and a 4% (v/v) stock was prepared by mixing 40 μl of Tween 20 to 960 μl PBS. The Tween 20 stock was diluted to prepare a 2% (v/v) solution of Tween 20 by mixing 800 μl of the 4% solution and 800 μl of PBS. A two fold dilution series was prepared for each inulin source as follows: • 10%: 800 μl of the 20% solution plus 800 μl of PBS • 5%: 800 μl of the 10% solution plus 800 μl of PBS • 2.5%: 800 μl of the 5% solution plus 800 μl of PBS • 1.25% 800 μl of the 2.5% solution plus 800 μl of PBS.
All tests were run five times (n=5).
For the applied dose, 50 μl of each inulin dilution, Tween 20 alone, or PBS alone was added to the VITRO-SKIN® discs followed immediately by 50 μl of either the bacteria cells or PBS. Samples containing 50 μl inulin dilutions and 50 μl PBS served as a background controls for the inulin samples. Samples containing 50 μl Tween 20 and 50 μl PBS served as background controls for the Tween 20 samples. Background controls for the PBS were 100 μl PBS. The plates were gently shaken at room temperature for three hours. The tissues were washed three times with 250 μl of PBS, and transferred to an opaque white 96 well plate (Costar # 3922). 200 μl of AlamarBlue™ (Trek Diagnostic Systems, Cleveland, Ohio) in LB (20 μl AlamarBlue™+180 μl LB per well) was added to each well. AlamarBlue™ conversion was monitored every 15 minutes in a microfluorometer (Fluoroskan Ascent, Thermo-Labsystems, Beverly, Mass.) for 120 minutes with an excitation of 544 nm and emission of 590 nm. In between readings the plates were covered and incubated at 37° C.
Results are expressed as percent bacteria adhered to the tissue relative to the PBS control. The percentage is based on the number of cells that adhered to the skin in the inulin-containing (or Tween 20-containing control) samples as compared to the number of cells that adhered to the skin in the PBS control (i.e. PBS plus bacteria cells), as determined by the AlamarBlue® levels (relative fluorescence units (RFU)) at 120 minutes. The percent adherence was calculated by the formula: (RFU of the sample−RFU of appropriate background control)/(average of the RFU of the PBS treatment−average RFU of PBS background control)*100.
The results for the five wells for each dilution step were averaged, and the percent attached as compared to the PBS control treatment was calculated.
For orientation: The colour change of resazurin is a common sign of viable cells or microbes.

Test [2] relates to Pseudomonas aeruginosa. In words: Inhibition of P. aeruginosa attachment to VITRO-SKIN synthetic skin substrate (Example 2, AlamarBlue). The settings on record: for % Attached as Compared to PBS Treatment: 3 h, RFU at 60 min, n = 3. As for the experimental part:
(§1) Two days prior to the test a bacterial culture was started by inoculating 10 ml of Luria-Bertani (LB) medium with one frozen bead containing Pseudomonas aeruginosa (Dr. G. O'Toole, Dept. Microbiol. Dartmouth Medical School, Hanover, N.H.), and incubating the culture overnight at 37° C. with agitation at 125 rpm.
(§2) One day prior to the test a 100 ml LB culture was inoculated with 100 μl of the overnight culture and grown overnight at 37° C. with agitation at 125 rpm.
(§3) The day of the test the optical density (OD) of the overnight culture was measured at 650 nm using a Spectramax spectrophotometer (Molecular Devices, Sunnyvale, Calif.). The culture was centrifuged at 4,500×g for 10 minutes at 4° C. to pellet the bacteria. The bacteria were resuspended in phosphate buffered saline (PBS) to give a concentration of 2×10^10 cells/ml (1 OD equals 1×10^9 cells/ml). […]
(§4) The tissues were treated with 50 μl of inulin, Tween 20 alone, or PBS alone followed immediately by 50 μl of either the bacteria cells or PBS. […] AlamarBlue™ conversion was monitored kinetically in a microfluorometer (Fluoroskan Ascent, Thermo-Labsystems, Beverly, Mass.) for 60 minutes at 37° C., with an excitation of 544 nm and emission of 590 nm.
(§5) Results are expressed as percent bacteria adhered to the tissue relative to the PBS control. The percentage is based on the number of cells that adhered to the skin in the inulin-containing (or Tween 20-containing control) samples as compared to the number of cells that adhered to the skin in the PBS control (i.e. PBS plus bacteria cells), as determined by the AlamarBlue® levels (RFU) at 60 minutes. The percent adherence was calculated by the formula: (RFU of the sample−RFU of appropriate background control)/(average of the RFU of the PBS treatment−average RFU of PBS background control)*100.
(§6) The results for the three wells comprising each dilution were averaged, and the percent attached as compared to the PBS control treatment was calculated.

The subject of test [3] is Pseudomonas aeruginosa. Kind of test: Inhibition of P. aeruginosa attachment to porcine skin (Example 2, AlamarBlue). To be noted: for % Attached as Compared to PBS Treatment: 3 h, RFU at 60 min, n = 3. As for the experimental part:
as §1, §2, §3, §4, §5, §6

For test [4], the system named is Pseudomonas aeruginosa. In words: Inhibition of P. aeruginosa attachment to EpiDerm skin culture (Example 3). To be noted: for % Attached as Compared to PBS Treatment: 37° C., 3 h, n = 2. As for the experimental part: The EpiDerm™ (MatTek, Ashland, Mass.) experiment was performed as outlined by the protocol supplied by the manufacturer for the EPI-200 EpiDerm™.
Two days prior to the test bacterial culture was started by inoculating 10 ml of Luria-Bertani broth (LB) with one to two well isolated colonies of Pseudomonas aeruginosa (Dr. G. O'Toole, Dept. Microbiol. Dartmouth Medical School, Hanover, N.H.) and incubating the culture overnight at 37° C. with agitation at 125 rpm.
One day prior to the test a 50 ml LB culture was inoculated with 50 μl of the overnight culture and grown overnight at 37° C. with agitation at 125 rpm. The optical density (at 650 nm) of the overnight culture was measured using a Spectramax spectrophotometer (molecular Devices, Sunnyvale, Calif.). The culture was centrifuged at 4,500×g for 10 minutes at 4° C. to pellet the bacteria. The bacteria were resuspended in phosphate buffered saline (PBS) to give a concentration of 2×10^10 cells/ml (1 OD equals 1×10^9 cells/ml).
A 20% (w/v) stock of inulin (Jerusalem Artichoke, Sigma Chemical St Louis Mo.) was prepared by mixing 0.20 g of inulin with a sufficient amount of PBS to yield a final volume of 1 ml. […]
For the applied dose, 50 μl of 20% inulin in PBS, 4% Tween 20 alone, or PBS alone was applied to the EpiDerm™ tissue followed immediately by 50 μl of either the bacteria cells or PBS. […] After three hours, the tissue was analyzed for the number of adhered bacteria.
To measure adherence of P. aeruginosa to the EPIDERM™ tissue, the liquid remaining on the tissue was first transferred to a fresh microcentrifuge tube. […] Fluorescence was monitored in a microfluorometer at an excitation of 485 nm and an emission of 510 nm.
Results are expressed as percent bacteria adhered to the tissue relative to the PBS control. […] The percent adherence was calculated by the formula: (RFU in bound fraction of the inulin or Tween 20 sample−average background RFU)/(average of the RFU in the bound fraction of the cells alone treatment−average background RFU)*100. […]

In the case of Tween 20 [reference compound], the “% Attached as Compared to PBS Treatment” value in test [1] (treatment concentration 2%) stood at 50%; in the test with Pseudomonas aeruginosa [2] (treatment concentration 2%) it was 10%; in the test on Pseudomonas aeruginosa [3] (treatment concentration 2%) it was 70%; with Pseudomonas aeruginosa [4] (treatment concentration 2%), 73%.
Turning to inulin [Chicory root], the “% Attached as Compared to PBS Treatment” value was 92% in test [1] (treatment concentration 1.25%), 60% in test [1] (treatment concentration 2.5%), 45% in test [1] (treatment concentration 5%) and 17% in test [1] (treatment concentration 10%).
The corresponding values for inulin [Dahlia tuber] are 86%, 59%, 48% and 29%.
In the case of inulin [Jerusalem Artichoke], in the test on Pseudomonas aeruginosa [2], the “effect on attachment of P. aeruginosa to VITRO-SKIN substrate (in words)” value is given as “inhibited attachment”. The “% Attached as Compared to PBS Treatment” value in the test with Pseudomonas aeruginosa [2] (treatment concentration 10%) was 53%; in the test with Pseudomonas aeruginosa [3] (treatment concentration 10%), 25%; in the test on Pseudomonas aeruginosa [4] (treatment concentration 10%) it was 57%. Besides, the “effect on attachment of P. aeruginosa to porcine skin (in words)” value in the test with Pseudomonas aeruginosa [3] is listed as “also occurred on porcine skin”. For the same substance, the “effect on attachment of P. aeruginosa to EpiDerm (in words)” value with Pseudomonas aeruginosa [4] is “inhibited attachment”.
